Structures are written as SMILES. Active and inactive are the calls of the source. No rule for the calls is given here. Bounds are passed on as bounds.

In PubChem BioAssay AID651975 (The Scripps Research Institute Molecular Screening Center, 2013) one finds IC50 data, which are given here for 84 compounds.

The test relates to StAR promoter luciferase reporter cells, luminescence inhibition. In words: StAR promoter reporter inhibition counter-screen, late-stage follow-up, counter-screen for LRH-1 inverse agonist project, cell-based, luminescence, dose response (AID 651975).
In general, IC50 refers to the point on the concentration scale where inhibition reaches its midpoint. Take `O=C(Nc1nc2c(Cl)cccc2s1)c1ccc([N+](=O)[O-])o1`: the IC50 was > 35.9 µM (inactive).
The same measure for `CCOc1ccc(NC(=O)COC(=O)c2ccc3c(c2)OCCO3)cc1`: > 35.9 µM (inactive); for `CCCc1cc(=O)oc2cc(C)cc(OCC(=O)NC3CC3)c12`: > 35.9 µM (inactive).
For `COc1ccc(CCNC(=O)COC(=O)c2cc(Cl)nc(Cl)c2)cc1`, the IC50 is > 35.9 µM (inactive).
The figure for `CC(=O)c1ccc(NC(=O)C(C)O/N=C(\N)c2ccccc2)cc1` (centres undefined) is > 35.9 µM (inactive).
The same measure for `O=C(CSc1nnc(CNC(=O)c2ccccc2F)o1)Nc1ccc2c(c1)OCCO2`: > 35.9 µM (inactive); for `COc1ccc(NC(=O)COC(=O)c2c(-c3ccccc3)noc2C)cc1`: 33.9 µM (inactive); for `O=C(CN1C(=O)CCC1=O)Nc1ccc(Br)cc1`: > 35.9 µM (inactive).
The figure for `CCOc1ccc(NC(=O)CN2CCN(CC(=O)Nc3ccc(OC)cc3)CC2)cc1` is > 35.9 µM (inactive).
Turning to `CC1SC(C)C(=O)N(CC(=O)Nc2ccc3c(c2)OCO3)C1=O` (centres undefined), the IC50 was > 35.9 µM (inactive).
The figure for `Cc1ccc(NC(=O)COC(=O)c2cc(=O)c3ccccc3o2)c(Br)c1` is > 35.9 µM (inactive); for `CN1CCN(c2ccc(S(=O)(=O)N3CCCCC3)cc2NC(=O)COc2ccc([N+](=O)[O-])cc2)CC1` it is > 35.9 µM (inactive).
The same measure for `Cc1ccc(NC(=O)CSc2nc3[nH]c(=O)cc(O)c3s2)c(Br)c1`: > 35.9 µM (inactive); for `COc1ccc(CCNC(=O)COC(=O)c2cccn2C)cc1`: > 35.9 µM (inactive).
The same measure for `COC(=O)c1ccc(NC(=O)CSc2ccc(-c3ccccn3)nn2)cc1`: > 35.9 µM (inactive).
For the compound `O=C(NCc1ccco1)c1nn(-c2ccccc2)c(=O)c2ccccc12`, the IC50 was > 35.9 µM (inactive).
On to `COC(=O)c1ccc(NC(=O)CSc2nc3ncccc3[nH]2)cc1`, for which the IC50 was > 35.9 µM (inactive).
The same measure for `COc1ccc(NC(=O)CSc2sc3c(O)cc(=O)[nH]c3c2C#N)c(OC)c1`: > 35.9 µM (inactive); for `CC(=O)c1ccc(OC(C)C(=O)OCC(=O)NCCc2ccccc2)cc1` (centres undefined): > 35.9 µM (inactive); for `COC(=O)c1ccc(NC(=O)COc2cccc(-n3cnnn3)c2)cc1`: > 35.9 µM (inactive).
The figure for `O=C(OCC(=O)N1CCN(C(=O)COC(=O)c2ccc(O)cc2O)CC1)c1ccc(O)cc1O` is > 35.9 µM (inactive); for `Cc1ccc(-c2csc(NC(=O)c3ccc([N+](=O)[O-])o3)n2)cc1` it is > 35.9 µM (inactive); for `CC(C)CC1(C)NC(=O)N(CC(=O)Nc2ccc3c(c2)OCCO3)C1=O` (centres undefined) it is > 35.9 µM (inactive).
The figure for `CCOc1ccc(NC(=O)COC(=O)CC2CCCCC2)cc1` is > 35.9 µM (inactive); for `COc1ccc(NC(=O)COC(=O)c2cc(S(=O)(=O)N3CCCC3)ccc2O)cc1` it is > 35.9 µM (inactive); for `COC(=O)c1ccc(NC(=O)CSc2nncn2-c2cccnc2)cc1` it is > 35.9 µM (inactive).
As for `Cc1ccc(NC(=O)COC(=O)C(NS(=O)(=O)c2ccc(Cl)cc2)C(C)O)c(Br)c1` (centres undefined), the IC50 was > 35.9 µM (inactive).
Take `O=C(COC(=O)c1ccc(=O)n(Cc2ccccc2)n1)Nc1ccc2c(c1)OCCO2`: the IC50 is > 35.9 µM (inactive).
The figure for `COc1ccc(NC(=O)CS(=O)(=O)c2ccc(C)cc2)c(OC)c1` is > 35.9 µM (inactive); for `CCn1c(SCC(=O)Nc2ccc(Cl)cc2)nnc1C1CC1` it is > 35.9 µM (inactive); for `Cc1nn(CC(=O)Nc2ccc3c(c2)OCCO3)c(C)c1[N+](=O)[O-]` it is > 35.9 µM (inactive).
The same measure for `O=C(COC(=O)c1ccc[n+]([O-])c1)Nc1ccc([N+](=O)[O-])cc1Cl`: > 35.9 µM (inactive); for `CCCc1cc(=O)oc2c(C)c(OCC(=O)NCCCn3ccnc3)ccc12`: > 35.9 µM (inactive); for `CCc1cc(=O)oc2c(C)c(OCC(=O)NCCN3CCOCC3)ccc12`: > 35.9 µM (inactive).
The figure for `Cc1cc(C)c2sc(NC(=O)c3ccc([N+](=O)[O-])o3)nc2c1` is > 35.9 µM (inactive); for `COc1ccccc1Oc1nnnn1-c1ccc(C(N)=O)cc1` it is > 35.9 µM (inactive); for `O=C(COC(=O)c1ccc(Br)cc1)Nc1ccccc1Br` it is > 35.9 µM (inactive).
With `COc1ccc(CCNC(=O)CSc2nn3c(=O)c(C)nnc3s2)cc1OC`, the IC50 is > 35.9 µM (inactive).
For the compound `COC(=O)c1ccc(NC(=O)CSc2nn3c(=O)c(C)nnc3s2)cc1`, the IC50 is > 35.9 µM (inactive).
For `COC(=O)c1ccc(NC(=O)CN2CCN(c3ccc(Cl)cc3)CC2)cc1`, the IC50 is > 35.9 µM (inactive).
On to `CCOc1ccc(OCCC(=O)OCC(=O)Nc2ccc3c(c2)OCCO3)cc1`, for which the IC50 was > 35.9 µM (inactive).
The figure for `O=C(Nc1ccccc1)c1oc2ccccc2c1NC(=O)C1CC1` is > 35.9 µM (inactive); for `COc1ccc(NC(=O)CSc2nc(N)c(-c3ccccc3)c(=O)[nH]2)cc1` it is > 35.9 µM (inactive).
Take `COc1ccc(CCNC(=O)COC(=O)Cc2ccccc2[N+](=O)[O-])cc1`: the IC50 is > 35.9 µM (inactive).
The same measure for `COc1ccc(NC(=O)CN2C(=O)NC3(CCCC3)C2=O)cc1`: > 35.9 µM (inactive); for `COC(=O)c1ccc(CNC(=O)COC(=O)c2cc(Cl)nc(Cl)c2)cc1`: > 35.9 µM (inactive); for `O=C(COc1ccc2c3c(c(=O)oc2c1)CCC3)NCc1ccncc1`: > 35.9 µM (inactive).
The same measure for `O=C(COc1ccc2c3c(c(=O)oc2c1)CCCC3)NCc1ccccn1`: > 35.9 µM (inactive); for `CCOc1ccc(NC(=O)CSc2nc3[nH]ncc3c(=O)[nH]2)cc1`: > 35.9 µM (inactive).
The figure for `Cc1ccn2c(=O)nc(SCC(=O)Nc3ccc4c(c3)OCCO4)nc2c1` is > 35.9 µM (inactive); for `CCOc1ccc(NC(=O)CSc2nnc(C(C)C)n2CC)cc1` it is > 35.9 µM (inactive); for `COc1ccc(NC(=O)CSc2nnc3ccc(-c4cccnc4)nn23)cc1OC` it is > 35.9 µM (inactive).
For `CCOc1ccc(OCCN2C(=O)NC(Cc3c[nH]c4ccccc34)C2=O)cc1` (centres undefined), the IC50 was > 35.9 µM (inactive).
Consider `CC(=O)Nc1ncc(Cc2cc(Cl)ccc2Cl)s1`, for which the IC50 is > 35.9 µM (inactive).
The same measure for `CCCN(CC(=O)Nc1ccc(C(C)=O)cc1)CC(=O)Nc1ccccc1C`: > 35.9 µM (inactive).
As for `Cc1cc(=O)oc2c(C)c(OCC(=O)NC3CC(C)(C)NC(C)(C)C3)ccc12`, the IC50 was > 35.9 µM (inactive).
With `CCCc1cc(=O)oc2cc(OCC(=O)NCc3ccccn3)ccc12`, the IC50 was > 35.9 µM (inactive).
Turning to `O=C(Nc1ccc(S(=O)(=O)N2CCOCC2)cc1)c1cccc([N+](=O)[O-])c1`, the IC50 is > 35.9 µM (inactive).
The same measure for `COc1ccc(CCNC(=O)CSc2ccc(NC(C)=O)cc2)cc1OC`: > 35.9 µM (inactive); for `COc1ccc(CCNC(=O)COC(=O)C23CC4CC(CC(C4)C2)C3)cc1`: > 35.9 µM (inactive).
Take `Cc1cc(Br)ccc1NC(=O)CN1C(=O)CCC1=O`: the IC50 was > 35.9 µM (inactive).
The figure for `CCCc1cc(=O)oc2c(C)c(OCC(=O)NC3CC(C)(C)NC(C)(C)C3)ccc12` is > 35.9 µM (inactive); for `Cc1cc(C)c2nc(NC(=O)c3ccc([N+](=O)[O-])o3)sc2c1` it is > 35.9 µM (inactive); for `COc1ccc(C2(C)NC(=O)N(CC(=O)NCCC3=CCCCC3)C2=O)cc1OC` (centres undefined) it is > 35.9 µM (inactive).
The same measure for `O=C(NCC1CCCO1)c1ccc(NC(=O)c2cccc([N+](=O)[O-])c2)cc1` (centres undefined): > 35.9 µM (inactive); for `Cc1cc(OCC(=O)Nc2nccs2)c2c(C)cc(=O)oc2c1`: > 35.9 µM (inactive).
The figure for `CCc1c(C)nc(SCC(=O)Nc2ccc3c(c2)OCCO3)[nH]c1=O` is > 35.9 µM (inactive).
With `Cc1sc(NC(=O)C(C)C)c(C(=O)Nc2ccccc2)c1C`, the IC50 was > 35.9 µM (inactive).
The same measure for `COc1ccc(-n2c(N)c(C(=O)NCc3cccnc3)sc2=S)cc1`: > 35.9 µM (inactive); for `Cc1cc(Br)ccc1NC(=O)CSc1nnc(CN2CCOCC2)n1C`: > 35.9 µM (inactive); for `CCOc1ccc(NC(=O)CSc2nncc(=O)n2N)cc1`: > 35.9 µM (inactive).
The same measure for `O=C(COC(=O)CCN1C(=O)C2CC=CCC2C1=O)NCCc1ccc(F)cc1` (centres undefined): > 35.9 µM (inactive).
In the case of `Cc1ccc(NC(=O)COC(=O)C(NS(=O)(=O)c2ccc(Cl)cc2)C(C)O)cc1C` (centres undefined), the IC50 was > 35.9 µM (inactive).
The figure for `CCc1cc(=O)[nH]c(SCC(=O)Nc2ccc3c(c2)OCCO3)n1` is > 35.9 µM (inactive); for `Cc1cc(Br)ccc1NC(=O)CN1C(=O)C2CC=CCC2C1=O` (centres undefined) it is 27.8 µM (inactive).
The figure for `COc1ccc(CC(NC(C)=O)C(=O)NC2CCN(c3nnnn3-c3ccccc3)CC2)cc1` (centres undefined) is > 35.9 µM (inactive).
The same measure for `Cc1cccc(NC(=O)COC(=O)CN2C(=O)c3ccccc3C2=O)c1C`: > 35.9 µM (inactive).
On to `CCOc1ccc(NC(=O)COC(=O)COc2cccc3c2OC(C)(C)C3)cc1`, for which the IC50 was > 35.9 µM (inactive).
Regarding `CCCc1cc(=O)oc2cc(OCC(=O)NCCc3ccc(S(N)(=O)=O)cc3)ccc12`, the IC50 was > 35.9 µM (inactive).
In the case of `O=C(Nc1ccc(Br)cn1)c1ccc([N+](=O)[O-])o1`, the IC50 was > 35.9 µM (inactive).
The same measure for `Cc1ccc(NC(=O)CSc2sc3c(O)cc(=O)[nH]c3c2C#N)c(F)c1`: > 35.9 µM (inactive); for `COCCn1c(C)cc(/C=C(\C#N)C(=O)OCC(=O)Nc2ccc(S(N)(=O)=O)cc2)c1C`: > 35.9 µM (inactive).
The same measure for `CCCc1cc(=O)oc2c(C)c(OCC(=O)NCCN3CCOCC3)ccc12`: > 35.9 µM (inactive); for `O=C(CSc1nc(=O)n2cc(Cl)ccc2n1)Nc1ccc2c(c1)OCCO2`: > 35.9 µM (inactive).
